pIC50: −log10 of the molar value.

Chain of human p38alfa (SAPKa) enzyme (Q16539 whole entry): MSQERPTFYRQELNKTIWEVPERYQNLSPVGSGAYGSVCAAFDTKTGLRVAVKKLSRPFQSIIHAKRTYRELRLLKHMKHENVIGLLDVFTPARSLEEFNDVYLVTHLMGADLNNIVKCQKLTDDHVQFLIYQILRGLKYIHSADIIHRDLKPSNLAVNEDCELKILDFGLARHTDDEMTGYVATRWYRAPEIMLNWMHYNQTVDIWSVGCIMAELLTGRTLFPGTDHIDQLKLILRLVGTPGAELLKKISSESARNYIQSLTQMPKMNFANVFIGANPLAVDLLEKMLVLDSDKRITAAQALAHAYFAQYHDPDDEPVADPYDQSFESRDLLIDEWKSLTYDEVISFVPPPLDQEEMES

This assay has as its target human p38alfa (SAPKa) enzyme (Homo sapiens (Human), UniProt Q16539). As to the kind of experiment: Inhibition Assay: p38 enzymatic activity (ATF2 phosphorylation, FRET). The class given is biochemical. As to conditions: read-out: p38α IC50.
As usually defined, the pIC50 is the negative decadic logarithm of the IC50, by convention in mol/L. With `Cc1ccc(C(N)=O)cc1-c1ccc2c(c1)NC(=O)C2(C)C` [Example 7, 3-(3,3-dimethyl-2-oxoindolin-6-yl)-4-methylbenzamide], the negative logarithm of the IC50 (pIC50) was 7.10.
Under `Cc1ccc(C(=O)NCC2CC2)cc1-c1ccc2c(c1)NC(=O)C2(C)C` [Example 18, N-(Cyclopropylmethyl)-3-(3,3-dimethyl-2-oxoindolin-6-yl)-4-methylbenzamide] stands 7.57; under `Cc1ccc(C(=O)Nc2ccon2)cc1-c1ccc2c(c1)NC(=O)C2(C)C` [Example 19, 3-(3,3-Dimethyl-2-oxo-2,3-dihydro-1H-indol-6-yl)-N-isoxazol-3-yl-4-methylbenzamide], 10.40.
Regarding `Cc1ccc(C(=O)NC2CC2)cc1-c1ccc2c(c1)NC(=O)C21CCOCC1` [Example 22, N-Cyclopropyl-4-methyl-3-(2-oxo-2′,3′,5′,6′-tetrahydrospiro[indoline-3,4′-pyran]-6-yl)benzamide], the pIC50 was 8.85.
Take `Cc1ccc(C(=O)Nc2ccon2)cc1-c1ccc2c(c1)NC(=O)C21CCOCC1` [Example 23, N-Isoxazol-3-yl-4-methyl-3-(2-oxo-1,2,2′,3′,5′,6′-hexahydrospiro[indole-3,4′-pyran]-6-yl)benzamide]: the negative-log IC50 (pIC50) was 10.22.
For `Cc1ccc(C(=O)NC2CC2)cc1-c1ccc2c(c1)NC(=O)C21CCS(=O)(=O)CC1` [Example 27, N-Cyclopropyl-3-(1′,1′-dioxido-2-oxo-1,2,2′,3′,5′,6′-hexahydrospiro[indole-3,4′-thiopyran]-6-yl)-4-methylbenzamide] the value was 8.17; for `Cc1c(F)cc(C(=O)NC2CC2)cc1-c1ccc2c(c1)NC(=O)C21CCN(S(C)(=O)=O)CC1` [Example 31, N-cyclopropyl-3-fluoro-4-methyl-5-(1′-(methylsulfonyl)-2-oxospiro[indoline-3,4′-piperidine]-6-yl)benzamide], 9.00; for `Cc1ccc(C(=O)NC2CC2)cc1-c1ccc2c(c1)NC(=O)C21CCC(F)(F)CC1` [Example 32, N-Cyclopropyl-3-(4,4-difluoro-2′-oxospiro[cyclohexane-1,3′-indoline]-6′-yl)-4-methylbenzamide], 8.74.
Regarding `Cc1ccc(C(=O)NC2CC2)cc1-c1ccc2c(c1)NC(=O)C21CCC(O)CC1` (stereo not drawn) [Example 34, N-cyclopropyl-3-(4-hydroxy-2′-oxospiro[cyclohexane-1,3′-indoline]-6′-yl)-4-methylbenzamide], the pIC50 was 8.85.
For `Cc1ccc(C(=O)NC2CC2)cc1-c1ccc2c(c1)NC(=O)C21CCC(C)(O)CC1` (stereo not drawn) [Example 37, N-cyclopropyl-3-(4-hydroxy-4-methyl-2′-oxospiro[cyclohexane-1,3′-indoline]-6′-yl)-4-methylbenzamide] the value was 9.10; for `Cc1ccc(C(=O)NC2CC2)cc1-c1ccc2c(c1)NC(=O)C21CCC(N2CCOCC2)CC1` (stereo not drawn) [Example 40, N-cyclopropyl-4-methyl-3-(4-morpholino-2′-oxospiro[cyclohexane-1,3′-indoline]-6′-yl)benzamide], 9.00; for `Cc1ccc(C(=O)NC2CC2)cc1-c1ccc2c(n1)NC(=O)C21CCCC1` [Example 43, N-Cyclopropyl-4-methyl-3-(2′-oxo-1′,2′-dihydrospiro[cyclopentane-1,3′-pyrrolo[2,3-b]pyridine]-6′-yl)benzamide], 8.25.
Under `Cc1ccc(C(=O)NC2CC2)cc1-c1cnc2c(c1)NC(=O)C2(C)C` [Example 45, N-Cyclopropyl-3-(3,3-dimethyl-2-oxo-2,3-dihydro-1H-pyrrolo[3,2-b]pyridin-6-yl)-4-methylbenzamide] stands 7.21; under `Cc1ccc(C(=O)NC2CC2)cc1-c1cnc2c(c1)NC(=O)C21CCOCC1` [Example 47, N-Cyclopropyl-4-methyl-3-(2′-oxo-1′,2,2′,3,5,6-hexahydrospiro[pyran-4,3′-pyrrolo-[3,2-b]pyridin]-6′-yl)benzamide], 7.89; under `Cc1ccc(C(=O)NC2CC2)cc1-c1cc2c(cn1)C1(CCCC1)C(=O)N2` [Example 51, N-Cyclopropyl-4-methyl-3-(2′-oxo-1′,2′-dihydrospiro[cyclopentane-1,3′-pyrrolo[3,2-c]pyridin]-6′-yl)benzamide], 9.10.
Under `Cc1ccc(C(=O)NC2CC2)cc1-c1ncc2c(n1)NC(=O)C21CCCC1` [Example 52, N-Cyclopropyl-4-methyl-3-(6′-oxo-6′,7′-dihydrospiro[cyclopentane-1,5′-pyrrolo[2,3-c]pyrimidin]-2′-yl)benzamide] stands 7.14; under `Cc1nnc(-c2ccc(C)c(-c3ccc4c(c3)NC(=O)C43CCCC3)c2)[nH]1` [Example 53, 6′-(2-Methyl-5-(5-methyl-4H-1,2,4-triazol-3-yl)phenyl)spiro[cyclopentane-1,3′-indolin]-2′-one], 8.12.
In the case of `Cc1nnc(-c2ccc(C)c(-c3ccc4c(c3)NC(=O)C43CCC3)c2)[nH]1` [Example 54, 6′-[2-Methyl-5-(5-methyl-4H-1,2,4-triazol-3-yl)phenyl]spiro[cyclobutane-1,3′-indol]-2′(1′H)-one], the pIC50 was 7.74.
Under `Cc1ccc(-c2ncn[nH]2)cc1-c1ccc2c(c1)NC(=O)C21CCCC1` [Example 55, 6′-(2-Methyl-5-(4H-1,2,4-triazol-3-yl)phenyl)spiro[cyclopentane-1,3′-indolin]-2′-one] stands 8.05; under `Cc1nnc(-c2ccc(C)c(-c3ccc4c(c3)NC(=O)C43CCOCC3)c2)[nH]1` [Example 59, 6-(2-Methyl-5-(5-methyl-4H-1,2,4-triazol-3-yl)phenyl)-2′,3′,5′,6′-tetrahydrospiro[indoline-3,4′-pyran]-2-one], 8.00.
For `Cc1nnc(-c2cc(F)c(C)c(-c3ccc4c(c3)NC(=O)C43CCOCC3)c2)[nH]1` [Example 61, 6-[3-Fluoro-2-methyl-5-(5-methyl-4H-1,2,4-triazol-3-yl)phenyl]-2′,3′,5′,6′-tetrahydro-spiro[indole-3,4′-pyran]-2(1H)-one] the value was 8.10; for `Cc1nnc(-c2ccc(C)c(-c3ccc4c(c3)NC(=O)C43CCC(F)(F)CC3)c2)[nH]1` [Example 63, 4,4-Difluoro-6′-(2-methyl-5-(5-methyl-4H-1,2,4-triazol-3-yl)phenyl)spiro[cyclohexane-1,3′-indolin]-2′-one], 8.70; for `Cc1nnc(-c2cc(F)c(C)c(-c3ccc4c(c3)NC(=O)C43CCC(C)(O)CC3)c2)[nH]1` (stereo not drawn) [Example 65, 6′-(3-fluoro-2-methyl-5-(5-methyl-4H-1,2,4-triazol-3-yl)phenyl)-4-hydroxy-4-methylspiro[cyclohexane-1,3′-indolin]-2′-one], 8.10.
For `Cc1nnc(-c2ccc(C)c(-c3ccc4c(c3)NC(=O)C43CCN(S(C)(=O)=O)CC3)c2)[nH]1` [Example 67, 6-(2-methyl-5-(5-methyl-4H-1,2,4-triazol-3-yl)phenyl)-1′-(methylsulfonyl)spiro[indoline-3,4′-piperidin]-2-one] the value was 8.33; for `Cc1nnc(-c2ccc(C)c(-c3ccc4c(c3)NC(=O)C43CCCC3)c2)o1` [Example 70, 6′-(2-Methyl-5-(5-methyl-1,3,4-oxadiazol-2-yl)phenyl)spiro[cyclopentane-1,3′-indolin]-2′-one], 7.49; for `Cc1nnc(-c2ccc(C)c(-c3ccc4c(c3)NC(=O)C43CCC(F)(F)CC3)c2)o1` [Example 72, 4,4-Difluoro-6′-(2-methyl-5-(5-methyl-1,3,4-oxadiazol-2-yl)phenyl)spiro-[cyclohexane-1,3′-indolin]-2′-one], 8.25.
In the case of `Cc1nnc(-c2ccc(C)c(-c3ccc4c(c3)NC(=O)C43CCC(O)CC3)c2)o1` (stereo not drawn) [Example 73, 4-hydroxy-6′-(2-methyl-5-(5-methyl-1,3,4-oxadiazol-2-yl)phenyl)spiro[cyclohexane-1,3′-indolin]-2′-one], the pIC50 was 8.24.

These data come from patent US8772288B2, “Substituted spiro[cycloalkyl-1,3′-indo]-2′(1′H)-one derivatives and their use as P38 mitogen-activated kinase inhibitors” (Almirall, S.A., priority 2008, dated 2014).
